Laboratory results reported in patent US20220257664A1, “METHOD FOR REGULATION OF SELECTIVE DIFFERENTIATION OF MUSCULOSKELETAL STEM CELLS” (CELLATOZ THERAPEUTICS, INC., priority 2019, published 2022).

B1: noggin: human noggin, ingredient 1) of the MSSC medium, 250 ng/mL (protein, UniProt Q13253 28-232, looked up)
Noggin: QHYLHIRPAPSDNLPLVDLIEHPDPIFDPKEKDLNETLLRSLLGGHYDPGFMATSPPEDRPGGGGGAAGGAEDLAELDQLLRQRPSGAMPSEIKGLEFSEGLAQGKKQRLSKKLRRKLQMWLWSQTFCPVLYAWNDLGSRFWPRYVKVGSCFSKRSCSVPEGMVCKPSKSVHLTVLRWRCQRRGGQRCGWIPIQYPIISECKCSC

Assays:
[1] = system: hMSSCs; experiment: Induction of selective differentiation of hMSSCs transplanted into mouse; type: in vivo; details: mixed with heparin, transplanted into subcutaneous tissue of mouse; FIG. 8
Protocol: In order to measure the possibility of selective differentiation of hMSSCs, hMSSCs were transplanted into the kidney (kidney capsule) or subcutaneous tissue of Balb/c nude mouse by pretreating with various growth factors such as connective tissue growth factor, transforming growth factor, insulin, fibroblast growth factor, etc. and then preparing into a cell aggregate (4×10^5 cells) or mixing with a cell carrier. 3-6 weeks after the transplantation, tissue was analyzed after removing the transplanted cells.
For investigation of the selective differentiation capacity of the hMSSCs induced in the same manner as in Example 2 into muscle in vivo, hMSSCs were mixed with fibrin glue to which heparin was added and then transplanted into the subcutaneous tissue of an immunodeficient mouse. 7 weeks after the transplantation of hMSSCs, tissue was stained with H&E and the STEM101 antibody (Takara, Japan) binding to the human cell nucleus marker in order to identify whether the differentiated tissue was derived from the hMSSCs. In addition, the differentiated tissue was immunofluorescence staining with an antibody against the muscle marker MyoD (Thermo Fisher Scientific Inc., USA) in order to identify muscle cells. The cell nuclei were counterstained with DAPI. […]

[2] = system: hESCs; experiment: Differentiation tendency of MSSC medium vs. CM medium (number of differentiations out of 20 observations); type: cell-based, human; details: noggin contained, as compared to CM medium
Protocol: The differentiation capacity of a medium (hereinafter, referred to as “CM medium”) obtained by replacing human noggin (Life Technologies), which is the ingredient 1) of the seven ingredients of the MSSC medium of Example 2, with conditioned medium (culture supernatant obtained after culturing CF1 cells for 24 hours using complete medium wherein DMEM/F12 is replaced with knockout DMEM (knockout DMEM supplemented with 20% knockout serum replacement (Invitrogen, USA), 1 mM glutamine, 1% nonessential amino acids (Invitrogen, USA), 0.1 mM β-mercaptoethanol, 0.1% penicillin-streptomycin and 5 mg/mL bovine serum albumin) (the remaining ingredients 2)-7) are the same) was compared with that of the MSSC medium.
Noggin is generally used to maintain the characteristics of hESCs during culturing (Chaturvedi G, Simone P D, Ain R, Soares M J, Wolfe M W. Noggin maintains pluripotency of human embryonic stem cells grown on Matrigel. Cell Prolif. 2009 August; 42(4): 425-33).

Molecule | selective differentiation of hMSSCs [1] | increase of tendency of osteogenic differentiation [2]
heparin | differentiated selectively into muscle only | –
B1 | – | ≥ 10 times
